Results: patent US10952992B2, “Methods of treating intraocular pressure with activators of Tie-2” (Aerpio Pharmaceuticals, Inc., priority 2015, dated 2021)

System: intraocular pressure, study eye/fellow eye
Test: Intraocular pressure with Compound 1 + sham, Compound 1 + RBZ or placebo + RBZ, months 1-3 (FIG. 2, TABLE 1)
Format: in vivo, human
Description: The difference in IOP was determined relative to a pre-treatment baseline (Base) at months 1, 2, and 3 (M1-M3). Intraocular pressure was determined in the study eye in millimeters of mercury (mmHg). […] The difference in IOP was determined relative to a pre-treatment Baseline at Months 1, 2, and 3. Intraocular pressure was determined in the study eye/fellow eye in mmHg.

placebo + RBZ: a placebo combined with RBZ (ranibizumab)
IOP, fellow eye (Baseline (pre-treatment)): 15.8 mmHg
IOP, study eye (Baseline (pre-treatment)): 15.2 mmHg
IOP, fellow eye (Month 1): 15.5 mmHg
IOP, study eye (Month 1): 15.0 mmHg
IOP, fellow eye (Month 2): 15.5 mmHg
IOP, study eye (Month 2): 15.0 mmHg
IOP, fellow eye (Month 3): 15.7 mmHg
IOP, study eye (Month 3): 15.3 mmHg
